Legend:
Format in all cases: biochemical
Human Tyk2 kinase domain = target: T1, Human Tyk2 kinase domain (Homo sapiens, UniProt P29597); test: Tyk2 Inhibition Assay (Omnia kinase fluorescence peptide substrate assay); details: averaged IC50 ranges; assay of Example A; 10 μM (Km app) or 1 mM ATP, 2 nM Tyk2
T1 construct: comprising amino acids 886 to 1187 with 10 additional histidine residues; 10xHis (histidine tag) (C, cleaved yes); made in house
T1 sequence (P29597 886-1187): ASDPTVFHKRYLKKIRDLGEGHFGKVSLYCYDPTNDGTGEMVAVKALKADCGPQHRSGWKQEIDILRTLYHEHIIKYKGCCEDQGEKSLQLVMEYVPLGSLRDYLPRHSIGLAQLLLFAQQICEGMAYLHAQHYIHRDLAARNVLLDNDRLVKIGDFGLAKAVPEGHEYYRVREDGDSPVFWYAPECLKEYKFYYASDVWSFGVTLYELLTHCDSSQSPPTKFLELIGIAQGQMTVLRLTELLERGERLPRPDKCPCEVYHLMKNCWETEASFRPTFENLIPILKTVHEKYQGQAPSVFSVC
How it was run: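 2 nM His-tag-cleaved kinase domain (aa 886–1187) with 8 μM Omnia Y12 peptide, 10 μM (Km app) or 1 mM ATP, pH 7.4 HEPES/10 mM MgCl2, 2% DMSO. Fluorescence (ex 360/em 485 nm) every 50 s for 45 min; IC50 from 4-parameter fit of POC, top dose 10 μM.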

JAK3 = target: T2, JAK3 (Homo sapiens, UniProt P52333); test: JAK3 Inhibition Assay (Omnia kinase fluorescence peptide substrate assay); details: averaged IC50 ranges; assay of Example D; 10 μM (Km app) or 1 mM ATP, 2.5 nM JAK3
T2 construct: purchased Invitrogen Corporation, Carlsbad, Calif; PV4080
T2 sequence (P52333 1-1124): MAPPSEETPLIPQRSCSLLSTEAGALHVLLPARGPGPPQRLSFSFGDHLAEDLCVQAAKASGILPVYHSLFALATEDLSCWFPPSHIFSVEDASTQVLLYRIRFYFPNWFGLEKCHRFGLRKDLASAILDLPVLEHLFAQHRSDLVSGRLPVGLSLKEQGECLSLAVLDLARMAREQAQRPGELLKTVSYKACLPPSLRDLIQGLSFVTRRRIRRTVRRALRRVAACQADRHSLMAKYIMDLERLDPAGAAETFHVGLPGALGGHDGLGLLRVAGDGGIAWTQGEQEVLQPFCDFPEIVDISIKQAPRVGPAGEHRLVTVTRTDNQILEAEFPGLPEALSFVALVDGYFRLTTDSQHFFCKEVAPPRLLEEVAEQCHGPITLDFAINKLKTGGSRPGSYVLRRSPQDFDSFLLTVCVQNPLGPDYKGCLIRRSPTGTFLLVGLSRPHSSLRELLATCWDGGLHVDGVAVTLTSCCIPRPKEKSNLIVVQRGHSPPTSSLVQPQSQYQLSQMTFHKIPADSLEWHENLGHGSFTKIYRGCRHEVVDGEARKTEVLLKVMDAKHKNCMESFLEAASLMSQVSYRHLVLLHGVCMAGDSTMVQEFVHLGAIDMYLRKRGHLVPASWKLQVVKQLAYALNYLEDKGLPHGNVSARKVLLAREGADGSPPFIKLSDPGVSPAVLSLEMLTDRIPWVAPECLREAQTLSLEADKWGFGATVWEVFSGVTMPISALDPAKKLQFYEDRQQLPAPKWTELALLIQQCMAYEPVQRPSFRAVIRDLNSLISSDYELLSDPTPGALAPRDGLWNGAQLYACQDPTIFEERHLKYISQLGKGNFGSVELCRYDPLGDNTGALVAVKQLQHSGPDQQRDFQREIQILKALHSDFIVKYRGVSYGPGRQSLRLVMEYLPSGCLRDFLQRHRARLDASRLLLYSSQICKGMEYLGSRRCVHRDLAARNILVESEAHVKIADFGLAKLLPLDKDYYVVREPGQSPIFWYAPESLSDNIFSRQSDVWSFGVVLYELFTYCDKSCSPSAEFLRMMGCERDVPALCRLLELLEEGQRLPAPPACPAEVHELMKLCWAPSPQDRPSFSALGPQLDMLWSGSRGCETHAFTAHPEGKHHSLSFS
How it was run: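 Kinase at 2.5 nM with 10 µM Omnia Y7 peptide and 10 µM (Km app) or 1 mM ATP in 25 mM HEPES pH 7.4, 10 mM MgCl2, 1 mM DTT, 0.01% Triton X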

JAK1 = target: T3, JAK1 (Homo sapiens, UniProt P23458); test: JAK1 Inhibition Assay (Omnia kinase fluorescence peptide substrate assay); details: averaged IC50 ranges; assay of Example B; 40 μM (Km app) or 1 mM ATP, 15 nM JAK1
T3 construct: purchased Invitrogen Corporation, Carlsbad, Calif; PV4775
T3 sequence (P23458 whole entry): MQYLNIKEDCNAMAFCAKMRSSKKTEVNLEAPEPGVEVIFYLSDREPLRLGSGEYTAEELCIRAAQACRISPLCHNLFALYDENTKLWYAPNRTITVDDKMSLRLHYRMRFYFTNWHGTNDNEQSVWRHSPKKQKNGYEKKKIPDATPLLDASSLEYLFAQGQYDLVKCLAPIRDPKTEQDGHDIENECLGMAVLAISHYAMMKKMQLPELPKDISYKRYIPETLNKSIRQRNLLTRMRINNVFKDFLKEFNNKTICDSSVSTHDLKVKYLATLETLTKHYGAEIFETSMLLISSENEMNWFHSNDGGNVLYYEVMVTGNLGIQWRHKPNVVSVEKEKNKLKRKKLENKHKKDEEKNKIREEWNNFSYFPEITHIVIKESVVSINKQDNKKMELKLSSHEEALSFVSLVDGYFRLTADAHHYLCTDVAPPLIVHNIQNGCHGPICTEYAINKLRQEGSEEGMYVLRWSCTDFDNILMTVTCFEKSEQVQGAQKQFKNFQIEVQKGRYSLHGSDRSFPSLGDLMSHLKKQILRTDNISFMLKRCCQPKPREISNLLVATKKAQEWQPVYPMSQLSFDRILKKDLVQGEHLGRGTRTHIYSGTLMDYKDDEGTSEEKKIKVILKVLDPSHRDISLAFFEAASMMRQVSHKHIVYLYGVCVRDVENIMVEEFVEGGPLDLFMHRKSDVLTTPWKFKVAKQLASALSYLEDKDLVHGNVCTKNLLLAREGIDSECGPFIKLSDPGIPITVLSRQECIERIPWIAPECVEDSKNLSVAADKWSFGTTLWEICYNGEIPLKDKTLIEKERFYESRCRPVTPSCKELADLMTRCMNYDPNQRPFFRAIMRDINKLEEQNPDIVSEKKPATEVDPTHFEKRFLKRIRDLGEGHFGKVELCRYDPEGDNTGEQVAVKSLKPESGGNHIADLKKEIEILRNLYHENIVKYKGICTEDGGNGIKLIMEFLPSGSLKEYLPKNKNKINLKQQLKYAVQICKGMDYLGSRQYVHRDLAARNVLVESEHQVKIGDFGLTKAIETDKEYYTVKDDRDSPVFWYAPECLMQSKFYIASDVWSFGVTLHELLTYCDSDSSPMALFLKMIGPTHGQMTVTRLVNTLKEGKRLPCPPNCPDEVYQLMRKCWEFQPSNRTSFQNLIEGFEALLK

JAK2 = target: T4, JAK2 (Homo sapiens, UniProt O60674); test: JAK2 Inhibition Assay (Omnia kinase fluorescence peptide substrate assay); details: averaged IC50 ranges; assay of Example C; 25 μM (Km app) or 1 mM ATP, 5 nM JAK2
T4 construct: purchased Invitrogen Corporation, Carlsbad, Calif; PV4288
T4 sequence (O60674 whole entry): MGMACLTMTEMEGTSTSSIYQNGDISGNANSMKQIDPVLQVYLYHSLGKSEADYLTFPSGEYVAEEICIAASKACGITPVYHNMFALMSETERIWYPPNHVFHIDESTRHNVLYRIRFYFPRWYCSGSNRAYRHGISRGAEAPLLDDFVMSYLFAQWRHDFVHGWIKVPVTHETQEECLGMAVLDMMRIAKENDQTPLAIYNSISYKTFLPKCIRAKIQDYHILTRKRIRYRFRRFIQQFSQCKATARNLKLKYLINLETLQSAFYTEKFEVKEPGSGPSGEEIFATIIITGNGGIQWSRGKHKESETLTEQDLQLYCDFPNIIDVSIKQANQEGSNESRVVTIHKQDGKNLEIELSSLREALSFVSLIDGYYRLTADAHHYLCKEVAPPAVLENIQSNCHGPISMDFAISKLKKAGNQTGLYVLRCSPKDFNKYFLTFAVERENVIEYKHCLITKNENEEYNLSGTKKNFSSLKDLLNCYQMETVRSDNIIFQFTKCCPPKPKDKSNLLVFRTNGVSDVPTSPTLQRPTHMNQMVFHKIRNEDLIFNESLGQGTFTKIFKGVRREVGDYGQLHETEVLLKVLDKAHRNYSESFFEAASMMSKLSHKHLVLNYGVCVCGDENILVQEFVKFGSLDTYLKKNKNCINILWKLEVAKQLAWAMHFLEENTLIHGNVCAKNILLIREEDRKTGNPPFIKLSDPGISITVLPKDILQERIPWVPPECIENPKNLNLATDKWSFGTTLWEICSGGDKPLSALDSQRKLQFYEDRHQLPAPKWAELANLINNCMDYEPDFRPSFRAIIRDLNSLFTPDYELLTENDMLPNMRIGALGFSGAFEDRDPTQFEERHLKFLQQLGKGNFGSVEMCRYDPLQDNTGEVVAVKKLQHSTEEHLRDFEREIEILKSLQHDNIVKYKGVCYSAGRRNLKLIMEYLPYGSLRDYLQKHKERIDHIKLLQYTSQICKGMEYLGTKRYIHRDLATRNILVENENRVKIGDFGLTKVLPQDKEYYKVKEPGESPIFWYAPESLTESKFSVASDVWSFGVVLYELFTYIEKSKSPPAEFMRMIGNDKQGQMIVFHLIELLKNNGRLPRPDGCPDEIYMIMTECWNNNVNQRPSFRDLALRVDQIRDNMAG
How it was run: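 A 10-point, 3-fold compound series (top 10 μM, 2% DMSO) was tested against 5 nM JAK2 with 10 μM Omnia Y7 substrate and either 1 mM or 25 μM (Km app) ATP. Buffer: pH 7.4 HEPES, MgCl2, Triton X-100, DTT. Sox fluorescence was monitored kinetically for 45 min; IC50 is the concentration giving 50 POC on a 4-parameter fit.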

Row | Compound | IC50 (Human Tyk2 kinase domain) [nM] | IC50 (JAK3) [nM] | IC50 (JAK1) [nM] | IC50 (JAK2) [nM]
1 | Cn1ccc(-c2cc3nccn3c(-c3ccn(C4(CC#N)CN(CC(F)(F)F)C4)n3)n2)cc1=O [Example 144, 2-(3-(3-(7-(1-methyl-2-oxo-1,2-dihydropyridin-4-yl)imidazo[1,2-c]pyrimidin-5-yl)-1H-pyrazol-1-yl)-1-(2,2,2-trifluoroethyl)azetidin-3-yl)acetonitrile] | 10 to 100 | > 1000 | > 1000 | 100 to 1000
2 | Cn1cc(-c2cc3nccn3c(-c3ccn(C4(CC#N)CN(CC(F)(F)F)C4)n3)n2)ccc1=O [Example 145, 2-(3-(3-(7-(1-methyl-6-oxo-1,6-dihydropyridin-3-yl)imidazo[1,2-c]pyrimidin-5-yl)-1H-pyrazol-1-yl)-1-(2,2,2-trifluoroethyl)azetidin-3-yl)acetonitrile] | < 10 | > 1000 | 100 to 1000 | 10 to 100
3 | N#CCC1(n2cc(-c3nc(-c4ccc(C(F)(F)F)cc4)cc4nccn34)cn2)CN(S(=O)(=O)C(F)(F)F)C1 [Example 146, 2-(3-(4-(7-(4-(trifluoromethyl)phenyl)imidazo[1,2-c]pyrimidin-5-yl)-1H-pyrazol-1-yl)-1-(trifluoromethylsulfonyl)azetidin-3-yl)acetonitrile] | < 10 | > 1000 | 10 to 100 | 100 to 1000
4 | Cn1cc(-c2cc3nccn3c(-c3cnn(C4(CC#N)CC5(COC5)C4)c3)n2)cn1 [Example 148, 2-(6-(4-(7-(1-methyl-1H-pyrazol-4-yl)imidazo[1,2-c]pyrimidin-5-yl)-1H-pyrazol-1-yl)-2-oxaspiro[3.3]heptan-6-yl)acetonitrile] | < 10 | > 1000 | 100 to 1000 | 10 to 100
5 | N#CCC1(n2cc(-c3nc(C4CC4)cc4nccn34)cn2)CN(CC(F)(F)F)C1 [Example 149, 2-(3-(4-(7-cyclopropylimidazo[1,2-c]pyrimidin-5-yl)-1H-pyrazol-1-yl)-1-(2,2,2-trifluoroethyl)azetidin-3-yl)acetonitrile] | 100 to 1000 | > 1000 | > 1000 | > 1000
6 | Cn1cc(-c2cc3nccn3c(-c3cnn(C4(CC#N)CC5(CCOCC5)C4)c3)n2)cn1 [Example 150, 2-(2-(4-(7-(1-methyl-1H-pyrazol-4-yl)imidazo[1,2-c]pyrimidin-5-yl)-1H-pyrazol-1-yl)-7-oxaspiro[3.5]nonan-2-yl)acetonitrile] | < 10 | > 1000 | 100 to 1000 | 10 to 100
7 | Cn1cc(-c2cc3nccn3c(-c3cnn(C4(CC#N)CC5(CCCCC5)C4)c3)n2)cn1 [Example 151, 2-(2-(4-(7-(1-methyl-1H-pyrazol-4-yl)imidazo[1,2-c]pyrimidin-5-yl)-1H-pyrazol-1-yl)spiro[3.5]nonan-2-yl)acetonitrile] | < 10 | 100 to 1000 | 100 to 1000 | 10 to 100
8 | Cn1cc(-c2cc3ncc(F)n3c(-c3cnn(C(CC#N)C4CC4)c3)n2)cn1 (stereo not drawn) [Example 152, 3-cyclopropyl-3-(4-(3-fluoro-7-(1-methyl-1H-pyrazol-4-yl)imidazo[1,2-c]pyrimidin-5-yl)-1H-pyrazol-1-yl)propanenitrile] | < 10 | 100 to 1000 | 100 to 1000 | 10 to 100
9 | N#CCC1(n2cc(-c3nc(-c4cnn(C5COC5)c4)cc4ncc(Cl)n34)cn2)CN(CC(F)(F)F)C1 [Example 153, 2-(3-(4-(3-chloro-7-(1-(oxetan-3-yl)-1H-pyrazol-4-yl)imidazo[1,2-c]pyrimidin-5-yl)-1H-pyrazol-1-yl)-1-(2,2,2-trifluoroethyl)azetidin-3-yl)acetonitrile] | < 10 | 100 to 1000 | 100 to 1000 | 10 to 100
10 | Cn1cc(-c2cc3ncc(F)n3c(-c3cnn(C4(CC#N)CN(S(=O)(=O)C(F)(F)F)C4)c3)n2)cn1 [Example 154, 2-(3-(4-(3-fluoro-7-(1-methyl-1H-pyrazol-4-yl)imidazo[1,2-c]pyrimidin-5-yl)-1H-pyrazol-1-Y1)-1-((trifluoromethyl)sulfonyl)azetidin-3-yl)acetonitrile] | < 10 | 100 to 1000 | 10 to 100 | < 10

More lines, now with the values ahead:

Row | IC50 (Human Tyk2 kinase domain) [nM] | IC50 (JAK3) [nM] | IC50 (JAK1) [nM] | IC50 (JAK2) [nM] | Compound
11 | < 10 | 100 to 1000 | 10 to 100 | 10 to 100 | Cn1cc(-c2cc3ncc(Cl)n3c(-c3cnn(C4(CC#N)CN(S(=O)(=O)C(F)(F)F)C4)c3)n2)cn1 [Example 155, 2-(3-(4-(3-chloro-7-(1-methyl-1H-pyrazol-4-yl)imidazo[1,2-c]pyrimidin-5-yl)-1H-pyrazol-1-yl)-1-((trifluoromethyl)sulfonyl)azetidin-3-yl)acetonitrile]
12 | < 10 | > 1000 | 100 to 1000 | 10 to 100 | N#CCC1(n2cc(-c3nc(-c4cnn(C5COC5)c4)cc4nccn34)cn2)CN(CC(F)F)C1 [Example 156, 2-(1-(2,2-difluoroethyl)-3-(4-(7-(1-(oxetan-3-yl)-1H-pyrazol-4-yl)imidazo[1,2-c]pyrimidin-5-yl)-1H-pyrazol-1-yl)azetidin-3-yl)acetonitrile]
13 | 10 to 100 | > 1000 | 100 to 1000 | 10 to 100 | N#CCC1(n2cc(-c3nc(-c4cnn(C5COC5)c4)cc4nccn34)cn2)CN(CC(F)(F)C(F)(F)F)C1 [Example 157, 2-(3-(4-(7-(1-(oxetan-3-yl)-1H-pyrazol-4-yl)imidazo[1,2-c]pyrimidin-5-yl)-1H-pyrazol-1-yl)-1-(2,2,3,3,3-pentafluoropropyl)azetidin-3-yl)acetonitrile]
14 | < 10 | 100 to 1000 | < 10 | 10 to 100 | COc1ccc(-c2cc3nccn3c(-c3cnn(C4(CC#N)CN(S(=O)(=O)C(F)(F)F)C4)c3)n2)cc1 [Example 158, 2-(3-(4-(7-(4-methoxyphenyl)imidazo[1,2-c]pyrimidin-5-yl)-1H-pyrazol-1-yl)-1-(trifluoromethylsulfonyl)azetidin-3-yl)acetonitrile]
15 | < 10 | > 1000 | 10 to 100 | 10 to 100 | COc1ccc(-c2cc3nccn3c(-c3cnn(C4(CC#N)CN(S(=O)(=O)C5CC5)C4)c3)n2)cc1 [Example 159, 2-(1-(cyclopropylsulfonyl)-3-(4-(7-(4-methoxyphenyl)imidazo[1,2-c]pyrimidin-5-yl)-1H-pyrazol-1-yl)azetidin-3-yl)acetonitrile]

Reference: patent US8962596B2 (Array BioPharma Inc., priority 2010, dated 2015)
